Experimental data published in US6531453B1, “NKT cell activators containing α-glycosylceramides” (Kirin Beera Kabushiki Kaisha, priority 1997, dated 2003).

Tests used:
[1] = test system: spleen cells of RAG-1KO/Vα14tg/Vβ8.2tg mice (NKT cells); assay: Stimulation of NKT cell proliferation, [3H]thymidine incorporation in spleen cells; type: cell-based, mouse; details: 2 days incubation
Experimental: Stimulation of NKT cell proliferation by compounds having an α-glycosylceramide structure was studied using spleen cells of RAG-1KO/Vα14tg/Vβ8.2tg mice shown in Pharmacological Test Example 1.
Spleen cells were prepared from the spleen of RAG-1KO/Vα14tg/Vβ8.2tg mice by conventional methods. These spleen cells were suspended at 2×10^6 cells/ml in an RPMI 1640 medium supplemented with 10% FCS, and 100 μl each of the suspension were plated into wells of 96-well round-bottomed plates. Ten different kinds of compounds having an α-glycosylceramide structure shown in FIG. 12 were added to the wells of the plates at a final concentration of 1, 10 or 100 ng/ml, and the plates were incubated for 2 days. Sixteen hours after the addition of [^3H] thymidine (0.5 μCi/well), the cells were harvested. The amount of [^3H] thymidine incorporated into the cells was measured by a liquid scintillation counter.

Vα24+ NKT cells = assay: Stimulation of Vα24+ NKT cell proliferation, autologous mixed leukocyte reaction with treated antigen-presenting cells; type: cell-based, human; details: antigen-presenting cells treated with 100 ng/ml, FIG. 9
Experimental: Peripheral blood mononuclear cells of a normal human were cultured for 4 days in an AIM medium supplemented with 10% FCS with the addition of GM-CSF (400 U/ml), IL-4 (200 U/ml) and KRN 7000 (100 ng/ml) to prepare antigen-presenting cells.
An autologous mixed leukocyte reaction (MLR) was performed using these antigen-presenting cells as stimulator cells and autologous peripheral blood mononuclear cells as responder cells. After incubation for 10 days, IL-2 (5 U/ml) was added, incubation was continued for another 4 days, and the cells were harvested. Next, CD4, CD8 double negative cells were recovered from these harvested cells and subjected to the phenotype analysis. The phenotypic analysis was expressed by fluorescence intensity of labeled antibodies against cells having various phenotypes.
The cells were cultured using IL-2 (5 U/ml) to stimulate the proliferation of Vα24^+ NKT cells, which were used as responder cells in the following autologous mixed leukocyte reaction. Autologous peripheral blood mononuclear cells were cultured for 4 days with the addition of GM-CSF +IL-4 and 100 ng/ml of KRN 7000, AGL-583 (β-galactosylceramide, β-GalCer) or 0.1% DMSO (vehicle) to prepare antigen-presenting cells. An autologous mixed leukocyte reaction was carried out using these antigen-presenting cells as stimulator cells. […]

[2] = test system: 4% DSS-induced mouse colitis (CDF1 mice); assay: Suppression of 4% DSS-induced mouse colitis; type: in vivo; details: KRN 7000 100 μg/kg i.p. days 1, 5, 9, IL-12 1 μg/mouse i.p. days 1, 3, 5, 7, 9
Experimental: Ten animals per group of CDF1 mice (6 weeks of age, females) (Japan SLC Inc.) were used for the following experiment. Day 0 was defined as the day when a 4% DSS solution (4% (w/v) dextran sodium sulfate (DSS) dissolved in water) was first provided as drinking water. The animals were divided into 3 groups, i.e., a group to which 100 μg/kg of KRN 7000 were intraperitoneally administered on days 1, 5, and 9, a group to which 1 μg/mouse of IL-12 was intraperitoneally administered on days 1, 3, 5, 7 and 9, and an untreated (control) group. Body weight was measured and survival or death of the animals were observed daily. Changes in body weight and survival rate are shown in FIG. 5A and 5B, respectively.

mice ((CBAxDBA/2)F1) = assay: Induction of abortion in (CBAxDBA/2)F1 mice; type: in vivo, mouse; details: same amount of IL-12, same manner
Experimental: C57BL/6 mice (Japan SLC) were used for the following experiment. The day when a vaginal plug was observed was defined as day 0. Pregnant mice were divided into 2 groups (6 mice per group), i.e., one group to which 150 μg/kg of KRN 7000 were intravenously administered on days 7, 8 and 9, and another to which PBS (phosphate-buffered saline) was administered in the same way. On day 12, the uterus was removed to observe the state of the embryo.
IL-12 is also known to activate NKT cells. When the same amount of IL-12 was administered to mice ((CBAxDBA/2)F1) in the same manner, the resulting abortion rate was 34%.

For `CCCCCCCCCCCCCCCCCCCCCC[C@@H](O)C(=O)N[C@@H](CO[C@H]1O[C@H](CO)[C@H](O)[C@H](O)[C@H]1O[C@H]1O[C@H](CO)[C@H](O)[C@H](O)[C@H]1O)[C@H](O)[C@H](O)CCCCCCCCCCCCCC` [S1140B-9, O-α-D-galactopyranosyl-(1→2)-O-α-D-galactopyranosyl-(1→1)-(2S,3S,4R)-2-amino-N-[(R)-2-hydroxytetracosanoyl]-1,3,4-octadecanetriol], the “[3H] Thymidine incorporation (cpm)” value ([1]; 1 ng/ml, vehicle 2090) was 3387 cpm, the “[3H] Thymidine incorporation (cpm)” value ([1]; 10 ng/ml, vehicle 2056) was 10265 cpm and the “[3H] Thymidine incorporation (cpm)” value ([1]; 100 ng/ml, vehicle 2014) was 49520 cpm.

With `CCCCCCCCCCCCCCCCCCCCCCCCCC(=O)N[C@@H](CO[C@H]1O[C@H](CO[C@H]2O[C@H](CO)[C@H](O)[C@H](O)[C@H]2O)[C@@H](O)[C@H](O)[C@H]1O)[C@H](O)[C@H](O)CCCCCCCCCCCCCC` [AGL584, O-α-D-galactopyranosyl-(1→6)-O-α-D-glucopyranosyl-(1→1)-(2S,3S,4R)-2-amino-N-hexacosanoyl-1,3,4-octadecane triol] the “[3H] Thymidine incorporation (cpm)” value ([1]; 1 ng/ml, vehicle 2090) was 29331 cpm, the “[3H] Thymidine incorporation (cpm)” value ([1]; 10 ng/ml, vehicle 2056) was 65084 cpm and the “[3H] Thymidine incorporation (cpm)” value ([1]; 100 ng/ml, vehicle 2014) was 96783 cpm.

“β-galactosylceramide [reference compound]” was tested, and the “effect of treated antigen presenting cells on Vα24+ NKT cell proliferation ([3H]thymidine uptake)” value (Vα24+ NKT cells) was “no effect”.

In the case of `CCCCCCCCCCCCCCC[C@@H](O)[C@H](CO[C@H]1O[C@H](C)[C@H](O)[C@H](O)[C@H]1O)NC(=O)CCCCCCCCCCCCC` [AGL571, (2S,3R)-1-(6′-deoxy-α-D-galactopyranosyloxy)-2-tetra decanoylamino-3-octadecanol], the “[3H] Thymidine incorporation (cpm)” value ([1]; 1 ng/ml, vehicle 2090) is reported as 3969 cpm, the “[3H] Thymidine incorporation (cpm)” value ([1]; 10 ng/ml, vehicle 2056) is reported as 17848 cpm and the “[3H] Thymidine incorporation (cpm)” value ([1]; 100 ng/ml, vehicle 2014) is reported as 118092 cpm.

In the case of `CCCCCCCCCCCCCCCCCCCCCCCCCC(=O)N[C@@H](CO[C@H]1O[C@H](CO[C@H]2O[C@H](CO)[C@H](O)[C@H](O)[C@H]2O)[C@H](O)[C@H](O)[C@H]1O)[C@H](O)[C@H](O)CCCCCCCCCCCCCC` [AGL586, O-α-D-galactopyranosyl-(1→6)-O-α-D-galactopyranosyl-(1→1)-(2S,3S,4R)-2-amino-N-hexacosanoyl-1,3,4-octa decanetriol], the “[3H] Thymidine incorporation (cpm)” value ([1]; 1 ng/ml, vehicle 2090) is reported as 5137 cpm, the “[3H] Thymidine incorporation (cpm)” value ([1]; 10 ng/ml, vehicle 2056) is reported as 39750 cpm and the “[3H] Thymidine incorporation (cpm)” value ([1]; 100 ng/ml, vehicle 2014) is reported as 102425 cpm.

`CCCCCCCCCCCCCCCCCCCCCC[C@@H](O)C(=O)N[C@@H](CO[C@H]1O[C@H](CO)[C@H](O)[C@H](O[C@H]2O[C@H](CO)[C@H](O)[C@H](O)[C@H]2NC(C)=O)[C@H]1O[C@H]1O[C@H](CO)[C@@H](O)[C@H](O)[C@H]1O)[C@H](O)[C@H](O)CCCCCCCCCCCCCC` [STL-8] was tested, and the “[3H] Thymidine incorporation (cpm)” value ([1]; 1 ng/ml, vehicle 2090) was 4761 cpm, the “[3H] Thymidine incorporation (cpm)” value ([1]; 10 ng/ml, vehicle 2056) was 26474 cpm and the “[3H] Thymidine incorporation (cpm)” value ([1]; 100 ng/ml, vehicle 2014) was 47141 cpm.

`CCCCCCCCCCCCCCCCCCCCCC[C@@H](O)C(=O)N[C@@H](CO[C@H]1O[C@H](CO)[C@H](O)[C@H](O[C@@H]2O[C@@H]([C@H](O)CO)[C@H](O)[C@H]2O)[C@H]1O)[C@H](O)[C@H](O)CCCCCCCCCCCCCC` [719-7, O-β-D-galactofuranosyl-(1→3)-O-α-D-galactopyranosyl-(1→1)-(2S,3S,4R)-2-amino-N-[(R)-2-hydroxytetracosanoyl]-1,3,4-octadecanetriol] was tested, and the “[3H] Thymidine incorporation (cpm)” value ([1]; 1 ng/ml, vehicle 2090) was 5287 cpm, the “[3H] Thymidine incorporation (cpm)” value ([1]; 10 ng/ml, vehicle 2056) was 30179 cpm and the “[3H] Thymidine incorporation (cpm)” value ([1]; 100 ng/ml, vehicle 2014) was 60528 cpm.

In the case of `CCCCCCCCCCCCCCC[C@@H](O)[C@H](CO[C@H]1O[C@H](CO)[C@H](O)[C@H](O)[C@H]1O)NC(=O)CCCCCCCCCCCCC` [AGL517, (2S,3R)-1-(α-D-galactopyranosyloxy)-2-tetradecanoyl amino-3-octadecanol], the “[3H] Thymidine incorporation (cpm)” value ([1]; 1 ng/ml, vehicle 2090) is reported as 3176 cpm, the “[3H] Thymidine incorporation (cpm)” value ([1]; 10 ng/ml, vehicle 2056) is reported as 15583 cpm and the “[3H] Thymidine incorporation (cpm)” value ([1]; 100 ng/ml, vehicle 2014) is reported as 83169 cpm.

With `CCCCCCCCCCCCCCC[C@@H](O)[C@H](CO[C@H]1O[C@H](CO)[C@@H](O)[C@H](O)[C@H]1O)NC(=O)CCCCCCCCCCCCC` [AGL563, (2S,3R)-1-(α-D-glucopyranosyloxy)-2-tetradecanoyl amino-3-octadecanol] the “[3H] Thymidine incorporation (cpm)” value ([1]; 1 ng/ml, vehicle 2090) was 2063 cpm, the “[3H] Thymidine incorporation (cpm)” value ([1]; 10 ng/ml, vehicle 2056) was 3773 cpm and the “[3H] Thymidine incorporation (cpm)” value ([1]; 100 ng/ml, vehicle 2014) was 13131 cpm.

`CCCCCCCCCCCCCCC[C@@H](O)[C@H](CO[C@H]1OC[C@H](O)[C@H](O)[C@H]1O)NC(=O)CCCCCCCCCCCCC` [AGL577, (2S,3R)-1-(β-L-arabinopyranosyloxy)-2-tetradecanoyl amino-3-octadecanol] was tested, and the “[3H] Thymidine incorporation (cpm)” value ([1]; 1 ng/ml, vehicle 2090) was 2083 cpm, the “[3H] Thymidine incorporation (cpm)” value ([1]; 10 ng/ml, vehicle 2056) was 7792 cpm and the “[3H] Thymidine incorporation (cpm)” value ([1]; 100 ng/ml, vehicle 2014) was 49701 cpm.

B1: IL-12: interleukin 12 (IL-12), known to activate NKT cells (protein, UniProt P29459 23-219; P29460 23-328, looked up)
Interleukin-12 subunit alpha: RNLPVATPDPGMFPCLHHSQNLLRAVSNMLQKARQTLEFYPCTSEEIDHEDITKDKTSTVEACLPLELTKNESCLNSRETSFITNGSCLASRKTSFMMALCLSSIYEDLKMYQVEFKTMNAKLLMDPKRQIFLDQNMLAVIDELMQALNFNSETVPQKSSLEEPDFYKTKIKLCILLHAFRIRAVTIDRVMSYLNAS
Interleukin-12 subunit beta: IWELKKDVYVVELDWYPDAPGEMVVLTCDTPEEDGITWTLDQSSEVLGSGKTLTIQVKEFGDAGQYTCHKGGEVLSHSLLLLHKKEDGIWSTDILKDQKEPKNKTFLRCEAKNYSGRFTCWWLTTISTDLTFSVKSSRGSSDPQGVTCGAATLSAERVRGDNKEYEYSVECQEDSACPAAEESLPIEVMVDAVHKLKYENYTSSFFIRDIIKPDPPKNLQLKPLKNSRQVEVSWEYPDTWSTPHSYFSLTFCVQVQGKSKREKKDRVFTDKTSATVICRKNASISVRAQDRYYSSSWSEWASVPCS
In the case of B1, the “time of weight loss as compared with the control group” value ([2]; FIG. 5A) is reported as “at an extremely early period”, the “survival period as compared with the control group” value ([2]; FIG. 5B) is reported as “significantly shorter” and the abortion rate (mice ((CBAxDBA/2)F1)) is reported as 34%.
